# From patent US7491703B2, “Tetrapeptide regulating blood glucose level in diabetes mellitus” (“Access Bioscience” CJSC, priority 2003, dated 2009)
# Residues, ends and D or L forms follow the SMILES beside them.
# Columns and labels:
# [1] = tested on: rats with alloxan diabetes; test: Course of alloxan diabetes in rats, treatment variant (Example 2); assay type: in vivo, rat; settings: for decrease of the blood glucose level: throughout the whole study
# Protocol: The study was conducted on 21 white mongrel male rats with average body weight 375±35 g. After estimation of glucose concentration in the blood all the animals were divided at random into 2 groups. Then all the animals were exposed to single intravenous administration 1 ml of alloxan solution (“Spofa”) in dose 35 mg/kg. In 15 days control animals were administered once a day intraperitoneally with 0.3 ml 0.9% NaCl solution, rats of the main group were administered with Lys-Glu-Asp-Trp-NH2 [SEQ ID NO:1] in dose 3 μg (in 0.3 ml of 0.9% NaCl solution) per rat during 11 days.
# [2] = tested on: rats with alloxan diabetes; test: Course of alloxan diabetes in rats, prophylaxis and treatment variant (Example 3); assay type: in vivo, rat
# Protocol: The experiment was carried out on 15 white mongrel male rats with the average body weight 375±35 g. The animals were divided randomly into 2 groups. Control animals were administered once a day intravenously with 0.3 ml of 0.9% NaCl solution, while the main group animals were administered with Lys-Glu-Asp-Trp-NH2 [SEQ ID NO:1] tetrapeptide in dose of 3 μg (in 0.3 ml of 0.9% NaCl solution) per rat during 7 days. After that all the animals were subject to single intravenous administration of 1 ml of alloxan solution (“Spofa”) in dose 35 mg/kg. Lys-Glu-Asp-Trp-NH2 [SEQ ID NO:1] tetrapeptide had been administered during 3 days following alloxan administration. After that […] were subject to the second Lys-Glu-Asp-Trp-NH2 [SEQ ID NO:1] tetrapeptide course from 18 day till day 28 (total 11 days) in the same dose.
smiles,measurement,setting,value
"NCCCC[C@H](N)C(=O)N[C@@H](CCC(=O)O)C(=O)N[C@@H](CC(=O)O)C(=O)N[C@@H](Cc1c[nH]c2ccccc12)C(N)=O [Lys-Glu-Asp-Trp-NH2, lysyl-glutamyl-aspartyl-tryptophane amid] (H-KEDW-NH2)",Glucose Concentration in the blood,"[1]; 1 day upon completion of peptide administration (3 μg per rat, 11 days)",222.5 ± 10.3 mg %
same,Glucose Concentration in the blood,"[1]; 8 days since the onset of tetrapeptide administration, 3 μg per rat i.p. daily",254.5 ± 16.2 mg %
same,Glucose Concentration in the blood,[1]; 9 days upon completion of peptide administration,183.9 ± 10.5 mg %
same,Glucose Concentration in the blood,"[1]; 15 days after alloxan administration, before peptide",333.6 ± 12.4 mg %
same,Glucose Concentration in the blood,[1]; 18 days upon completion of peptide administration,236.7 ± 10.3 mg %
same,Glucose Concentration in the blood,[1]; 28 days upon completion of peptide administration,221.5 ± 11.2 mg %
same,Glucose Concentration in the blood,[1]; 44 days upon completion of peptide administration,210.8 ± 9.3 mg %
same,Glucose Concentration in the blood,[1]; 58 days upon completion of peptide administration,198.9 mg %
same,lethality,"[1]; by the end of the investigation, 84 days after alloxan (control 70%)",36.4%
same,Glucose Concentration in the blood,"[1]; initial level, before alloxan and before peptide",81.1 ± 3.8 mg %
same,decrease of the blood glucose level,[1]; overall figure,38.4%
same,decrease of the blood glucose level,[1]; range in brackets,30-47.7%
same,lethality decrease,[1]; versus control group,two-fold
same,survived animals,[2]; 40th day after alloxan administration (control 57.1%),75%
same,Glucose Concentration in blood,[2]; 5 days after alloxan administration,247.3 ± 17.2 mg %
same,Glucose Concentration in blood,"[2]; 7 days from the onset of tetrapeptide administration (1 course, 3 μg per rat), healthy rats before alloxan",94.0 ± 0.8 mg %
same,Glucose Concentration in blood,[2]; 14 days after alloxan administration,261.5 ± 39.5 mg %
same,Glucose Concentration in blood,[2]; 18 days after alloxan administration (start of 2nd course),159.0 ± 32.6 mg %
same,Glucose Concentration in blood,[2]; 28 days after alloxan administration (end of 2nd course),77.3 ± 1.3 mg %
same,Glucose Concentration in blood,[2]; 33 days after alloxan administration,90.7 ± 5.2 mg %
same,Glucose Concentration in blood,[2]; 40 days after alloxan administration,107.7 ± 6.4 mg %
same,effect on blood glucose level,[2]; administration to healthy animals,did not lead to the decrease of blood glucose level
same,decrease of blood glucose level as compared to the controls,[2]; after one course,22-30%
same,blood glucose level,"[2]; after the second course, 28th, 33rd, 40th day",complete normalisation of the blood glucose level
same,rats with severe form of diabetes mellitus,[2]; control: 5 rats out of 7,2 rats out of 8
same,Glucose Concentration in blood,"[2]; initial level, before peptide",76.8 ± 1.1 mg %
